# Results taken from patent publication US20120065228A1, “COMPOSITIONS AND METHODS FOR TREATING, CONTROLLING, REDUCING, OR AMELIORATING OCULAR INFLAMMATORY WITH LOWER RISK OF INCREASED INTRAOCULAR PRESSURE” (priority 2007, published 2012).
# Experiments:
# Assay type in all cases: in vivo, human
# ocular signs = assay: Clinical dose ranging study after cataract surgery: ocular signs (biomicroscopy)
# Description: (§1) There were 8 treatment groups in this study, consisting of three drug doses, vehicle and three dosing frequencies (see also Table 4-1): • Group A: 1% BOL-303242-X ophthalmic suspension, two times per day (BID) • Group B: 2% BOL-303242-X ophthalmic suspension, one time per day (QD) • Group C: 2% BOL-303242-X ophthalmic suspension, BID • Group D: 2% BOL-303242-X ophthalmic suspension, four times per day (QID) • Group E: 3% BOL-303242-X ophthalmic suspension, QD • Group F: 3% BOL-303242-X ophthalmic suspension, BID • Group G: 3% BOL-303242-X ophthalmic suspension, QID • Group H: Vehicle for BOL-303242-X (divided equally into QID, BID, and QD)
# (§2) Subjects self-administered study drug, instilling 1 to 2 drops of study drug into the study eye: QID at approximately 4 hour intervals, BID at approximately 12 hour intervals, or QD once in the morning, for 14 days. The initial dose occurred in the clinic at Visit 3 and the final dose was on the day before Visit 6 (postoperative Day 15±1 day). Subjects were examined and evaluated according to the following schedule:
# (§3) Visit 1 (screening), Visit 2 (cataract surgery), Visit 3 (postoperative Day 1), Visit 4 (postoperative Day 3±1 day), Visit 5 (postoperative Day 8±1 day), Visit 6 (postoperative Day 15±1 day), Visit 7 (postoperative Day 18±1 day). Subject assessments included adverse events (AEs), concomitant medications, ocular symptoms, pinholed Snellen visual acuity (VA), intraocular pressure (IOP), ocular signs (biomicroscopy), fundoscopy, and study drug drop sensation. In addition, subject diaries were collected and reviewed for accuracy and treatment compliance.
# Safety: The safety endpoints in this study were: incidence of AEs, change in IOP, ocular signs (biomicroscopy), Snellen VA, fundoscopy, study drug drop sensation assessment.
# [1] = test system: inflammation following cataract surgery; assay: Clinical dose ranging study after cataract surgery: resolution of anterior chamber (AC) cells and flare
# Description: as §1
# (§4) At Visit 3 (postoperative Day 1, 18 to 34 hours following surgery), subjects meeting all eligibility criteria were randomized to one of the treatment groups continuing to be studied, including vehicle, in a 1:1 ratio.
# as §2, §3
# Among other criteria for inclusion in this study, subjects were those who: • were to be at least 18 years of age on the date the informed consent form (“ICF”) was signed and with the capacity to voluntarily provide consent; • were candidates for routine, uncomplicated cataract surgery (phacoemulsification with posterior chamber intraocular lens (“IOL”) implantation, not combined with any other surgery) in the study eye; • in the Investigator's opinion, had potential postoperative pinholed Snellen visual acuity (“VA”) of at least 20/200 or pinholed Decimal VA of 0.1 in the study eye; • had undergone routine, uncomplicated cataract surgery (phacoemulsification with posterior chamber IOL implantation, not combined with any other surgery) in the study eye; and • had ≧Grade 2 anterior chamber (“AC”) cells in the study eye.
# Primary Efficacy: The primary efficacy endpoint for this study was the proportion of subjects with complete resolution of AC cells at Visit 5 (postoperative Day 8). Complete resolution of AC cells is defined as Grade 0 cells.
# (§5) Secondary Efficacy: The secondary efficacy endpoints for this study were the proportions of subjects with Grade 0 pain at Visit 5 (postoperative Day 8) and at each visit, complete resolution of AC cells at each visit, complete resolution of AC cells and flare at each visit, complete resolution of AC flare at each visit, change from baseline to each follow-up visit in AC cells and AC flare combined and separately, ocular symptoms.
# [2] = test system: intraocular pressure (IOP); assay: Clinical dose ranging study after cataract surgery: intraocular pressure (safety)
# Description: as §1, §2
# Visit 1 (screening), Visit 2 (cataract surgery), Visit 3 (postoperative Day 1), Visit 4 (postoperative Day 3±1 day), Visit 5 (postoperative Day 8±1 day), Visit 6 (postoperative Day 15±1 day), Visit 7 (postoperative Day 18±1 day). […]
# [3] = test system: pain following cataract surgery; assay: Clinical dose ranging study after cataract surgery: Grade 0 pain
# Description: as §1, §4, §2, §3, §5
# [4] = 1% BID, Visit 5 (postoperative Day 8)
# [5] = 1% BID, Visit 6 (postoperative Day 15)
# [6] = 1% BID, Visit 7 (postoperative Day 18)
# [7] = 2% BID, Visit 6 (postoperative Day 15)
# [8] = 2% QD, Visit 5 (postoperative Day 8)
# [9] = 2% QD, Visit 6 (postoperative Day 15)
# [10] = 2% QID, Visit 5 (postoperative Day 8)
# [11] = 2% QID, Visit 6 (postoperative Day 15)
# [12] = 2% QID, Visit 7 (postoperative Day 18)
# [13] = 3% BID, Visit 4 (postoperative Day 3)
# [14] = 3% BID, Visit 5 (postoperative Day 8)
# [15] = 3% BID, Visit 6 (postoperative Day 15)
# [16] = 3% BID, Visit 7 (postoperative Day 18)
# [17] = 3% QD, Visit 4 (postoperative Day 3)
# [18] = 3% QD, Visit 5 (postoperative Day 8)
# [19] = 3% QD, Visit 6 (postoperative Day 15)
# [20] = 3% QD, Visit 7 (postoperative Day 18)
# [21] = 3% QID, Visit 5 (postoperative Day 8)
# [22] = 3% QID, Visit 6 (postoperative Day 15)
# [23] = 3% QID, Visit 7 (postoperative Day 18)
structure (smiles),measurement,setting,value
Cc1ccc2c(NCC(O)(CC(C)(C)c3cc(F)cc4c3OCC4)C(F)(F)F)cccc2n1 (stereo not drawn) [BOL-303242-X],Proportions of subjects with increases in scores for AC cells,"ocular signs; Visit 4 (2% QD) and Visit 5 (2% QID, 3% QID)",statistically significantly lower proportions
same,Proportions of subjects with increases in scores for ciliary flush,"ocular signs; Visit 4 (2% QD), Visit 5 (1% BID, 2% QID, 3% BID, 3% QID), and Visit 7 (2% QID and 3% QD)",statistically significantly lower proportions
same,Proportions of subjects with increases in scores for AC flare,ocular signs; Visit 4 (2% QID) and Visit 5 (3% BID),statistically significantly lower proportions
same,Proportions of subjects with increases in scores for chemosis,ocular signs; Visit 4 (3% BID),statistically significantly lower proportions
same,Proportions of subjects with increases in scores for palpebral conjunctival injection,"ocular signs; Visit 5 (1% BI), 3% BID)",statistically significantly lower proportions
same,Proportions of subjects with increases in scores for bulbar conjunctival injection,"ocular signs; Visit 5 (2% QID, 3% BID, 3% QID)",statistically significantly lower proportions
same,"Proportions of subjects with increases in scores for anterior vitreous haze, corneal edema, corneal staining, eyelid erythema, hyphema, and posterior synechiae",ocular signs; any dose groups at any postoperative visits,No statistically significant differences
same,Proportion of subjects with complete resolution of AC flare,"[1]; 1% BID (printed 196 BID), Visit 7 (postoperative Day 18)",56.7%
same,Proportion of subjects with complete resolution of AC cells,[1]; [4],21.7%
same,Proportion of subjects with complete resolution of AC cells and flare combined,[1]; [4],20.0%
same,Proportion of subjects with complete resolution of AC flare,[1]; [4],41.7%
same,Proportion of subjects with complete resolution of AC flare,[1]; [5],66.7%
same,Proportion of subjects with complete resolution of AC cells,[1]; [6],41.7%
same,Proportion of subjects with complete resolution of AC cells and flare combined,[1]; [6],41.7%
same,Proportion of subjects with complete resolution of AC flare,"[1]; 2% BID, Visit 5 (postoperative Day 8)",50.0%
same,Proportion of subjects with complete resolution of AC flare,[1]; [7],60.7%
same,Proportion of subjects with complete resolution of AC cells,[1]; [8],21.4%
same,Proportion of subjects with complete resolution of AC cells and flare combined,[1]; [8],21.4%
same,Proportion of subjects with complete resolution of AC flare,[1]; [8],42.9%
same,Proportion of subjects with complete resolution of AC cells and flare combined,[1]; [9],35.7%
same,Proportion of subjects with complete resolution of AC flare,"[1]; 2% QID (printed 2% ND), Visit 6 (postoperative Day 15)",66.7%
same,Proportion of subjects with complete resolution of AC cells,[1]; [10],28.3%
same,Proportion of subjects with complete resolution of AC cells and flare combined,[1]; [10],26.7%
same,Proportion of subjects with complete resolution of AC flare,[1]; [10],51.7%
same,Proportion of subjects with complete resolution of AC cells,[1]; [11],43.3%
same,Proportion of subjects with complete resolution of AC cells and flare combined,[1]; [11],41.7%
same,Proportion of subjects with complete resolution of AC cells,[1]; [12],53.396%
same,Proportion of subjects with complete resolution of AC cells and flare combined,[1]; [12],53.3%
same,Proportion of subjects with complete resolution of AC flare,[1]; [12],66.7%
same,Proportion of subjects with complete resolution of AC flare,[1]; [13],38.3%
same,Proportion of subjects with complete resolution of AC cells,[1]; [14],25.0%
same,Proportion of subjects with complete resolution of AC cells and flare combined,[1]; [14],23.3%
same,Proportion of subjects with complete resolution of AC flare,[1]; [14],51.7%
same,Proportion of subjects with complete resolution of AC cells,[1]; [15],38.3%
same,Proportion of subjects with complete resolution of AC cells and flare combined,[1]; [15],38.3%
same,Proportion of subjects with complete resolution of AC flare,[1]; [15],51.7%
same,Proportion of subjects with complete resolution of AC cells,[1]; [16],43.3%
same,Proportion of subjects with complete resolution of AC cells and flare combined,[1]; [16],43.3%
same,Proportion of subjects with complete resolution of AC flare,[1]; [16],56.7%
same,Proportion of subjects with complete resolution of AC flare,[1]; [17],35.6%
same,Proportion of subjects with complete resolution of AC cells,[1]; [18],25.4%
same,Proportion of subjects with complete resolution of AC cells and flare combined,[1]; [18],23.7%
same,Proportion of subjects with complete resolution of AC flare,[1]; [18],55.9%
same,Proportion of subjects with complete resolution of AC cells,[1]; [19],47.5%
same,Proportion of subjects with complete resolution of AC cells and flare combined,[1]; [19],47.5%
same,Proportion of subjects with complete resolution of AC flare,[1]; [19],66.1%
same,Proportion of subjects with complete resolution of AC cells,[1]; [20],47.5%
same,Proportion of subjects with complete resolution of AC cells and flare combined,[1]; [20],47.5%
same,Proportion of subjects with complete resolution of AC flare,[1]; [20],57.6%
same,Proportion of subjects with complete resolution of AC cells,[1]; [21],30.0%
same,Proportion of subjects with complete resolution of AC cells and flare combined,[1]; [21],30.0%
same,Proportion of subjects with complete resolution of AC flare,[1]; [21],55.0%
same,Proportion of subjects with complete resolution of AC cells,[1]; [22],38.3%
same,Proportion of subjects with complete resolution of AC cells and flare combined,[1]; [22],36.7%
same,Proportion of subjects with complete resolution of AC flare,[1]; [22],61.7%
same,Proportion of subjects with complete resolution of AC cells,[1]; [23],46.7%
same,Proportion of subjects with complete resolution of AC cells and flare combined,[1]; [23],45.0%
same,Proportion of subjects with complete resolution of AC flare,[1]; [23],58.3%
same,"Anterior chamber cells, change from baseline, compared to vehicle","[1]; Visit 4: 1% BID, 2% QID, 3% QD, 3% QID",Statistically significant mean decreases
same,"Anterior chamber cells, change from baseline, compared to vehicle","[1]; Visit 5: 1% BID, 2% QD, 2% QID, 3% QD, 3% BID, 3% QID",Statistically significant mean decreases
same,"Anterior chamber cells, change from baseline, compared to vehicle","[1]; Visit 6: 1% BID, 2% QID, QD, 3% BID, 3% QID",Statistically significant mean decreases
same,"Anterior chamber cells, change from baseline, compared to vehicle","[1]; Visit 7: 1% BID. 2% QD, 2% QID, QD, 3% BID, 3% QID",Statistically significant mean decreases
same,Mean IOP values among groups,"[2]; 2% QID and 3% QD groups, Visit 4 (postoperative Day 3) to Visit 7 (postoperative Day 18)",lowest mean IOP values
same,"Proportion of subjects with mean IOP changes from baseline of ≧5 mmHg or ≧10 mmHg, compared to vehicle",[2]; any dose groups at any study visits,no statistically significant differences
same,Proportion of subjects with Grade 0 pain,[3]; [5],61.7%
same,Proportion of subjects with Grade 0 pain,[3]; [6],61.7%
same,Proportion of subjects with Grade 0 pain,[3]; [7],57.1%
same,Proportion of subjects with Grade 0 pain,"[3]; 2% BID, Visit 7 (postoperative Day 18)",53.6%
same,Proportion of subjects with Grade 0 pain,[3]; [9],57.1%
same,Proportion of subjects with Grade 0 pain,"[3]; 2% QD, Visit 7 (postoperative Day 18)",57.1%
same,Proportion of subjects with Grade 0 pain,"[3]; 2% QID (printed 296 QID), Visit 5 (postoperative Day 8)",78.396%
same,Proportion of subjects with Grade 0 pain,"[3]; 2% QID, Visit 4 (postoperative Day 3)",73.3%
same,Proportion of subjects with Grade 0 pain,[3]; [11],75.0%
same,Proportion of subjects with Grade 0 pain,[3]; [12],71.7%
same,Proportion of subjects with Grade 0 pain,[3]; [13],70.0%
same,Proportion of subjects with Grade 0 pain,[3]; [14],75.0%
same,Proportion of subjects with Grade 0 pain,[3]; [15],68.3%
same,Proportion of subjects with Grade 0 pain,[3]; [17],81.4%
same,Proportion of subjects with Grade 0 pain,[3]; [18],71.2%
same,Proportion of subjects with Grade 0 pain,[3]; [19],71.2%
same,Proportion of subjects with Grade 0 pain,[3]; [20],66.1%
same,Proportion of subjects with Grade 0 pain,"[3]; 3% QID, Visit 4 (postoperative Day 3)",66.7%
same,Proportion of subjects with Grade 0 pain,[3]; [21],70.0%
same,Proportion of subjects with Grade 0 pain,[3]; [22],70.0%
